BigSolDB 2.1

O=C(O)CC[C@H](NC(=O)OCC1c2ccccc2-c2ccccc21)C(=O)O
solubility (mole fraction)
Settings	283.15 K	288.15 K	293.15 K	298.15 K	303.15 K	308.15 K	313.15 K	318.15 K	323.15 K
in 2-butanone	0.0112	0.0112	0.012	0.0127	0.0136	0.0143	0.0157	0.0176	0.0191
in acetone	0.0243	0.0261	0.0274	0.0295	0.0323	0.0342	0.0393	0.0437	0.0471
in acetonitrile	0.000662	0.000708	0.0008	0.000997	0.00123	0.00139	0.00166	0.00194	0.00232
in dimethyl carbonate	0.00058	0.000625	0.000736	0.000819	0.000911	0.00108	0.00123	0.00157	0.00186
in ethanol	0.0231	0.0257	0.0276	0.0319	0.0371	0.0419	0.0468	0.0514	0.0598
in ethyl acetate	0.00239	0.0026	0.00296	0.00318	0.00347	0.00391	0.00451	0.00498	0.0056
in isopropanol	0.0139	0.0142	0.0156	0.0175	0.0199	0.0238	0.0269	0.0302	0.0351
in methanol	0.0246	0.0266	0.0295	0.0325	0.0364	0.0413	0.0471	0.0525	0.0611
in methyl acetate	0.00319	0.00355	0.00388	0.00418	0.00473	0.00535	0.00609	0.00726	0.00888
in n-butanol	0.00911	0.00972	0.0102	0.0114	0.0127	0.0141	0.016	0.0173	0.0199
in n-butyl acetate	0.00177	0.00182	0.00204	0.0022	0.00238	0.00269	0.00309	0.0034	0.00381
in n-pentanol	0.00655	0.00765	0.00845	0.00993	0.0112	0.0128	0.0159	0.0187	0.0221
in n-propanol	0.0138	0.0146	0.0155	0.0172	0.02	0.0237	0.0258	0.03	0.0333
in n-propyl acetate	0.0016	0.00169	0.00192	0.00204	0.00232	0.00247	0.00281	0.00317	0.00355
